Reference: ChEMBL document CHEMBL5338739, “Discovery of Dual Lysine Methyltransferase G9a and EZH2 Inhibitors with In Vivo Efficacy against Malignant Rhabdoid Tumor” (J Med Chem, 2023)
Calls of active or inactive are those of the source. The rule behind the calls is not given here.

Experiments:
Mus musculus = test: Downregulation of H3K9me2 expression in tumor tissue of BALB/c nude mouse xenografted with human RD cells at 20 mg/kg, ip administered for 5 consecutive days followed by 2 rest days for 3 weeks by Western blotting analysis; type: functional, organism-based
[1] = target: Histone-lysine N-methyltransferase EZH2 (Homo sapiens, UniProt Q15910); test: Binding affinity to EZH2 in human RD cells assessed as decrease in pronase E mediated EZH2 hydrolyzation incubated for 1 hr by DARTS analysis; type: cell-based; conditions: dose 5-20 µM
RD = test: Downregulation of H3K4me1 expression in human RD cells at 5 uM incubated for 6 days by immunoblotting analysis; type: functional, cell-based; conditions: time 6.0 day
[2] = AUC (0 to infinity) in Sprague-Dawley rat at 30 mg/kg, po administered for 24 hrs by HPLC analysis; type: ADME, organism-based; parameters: time 24 hrs, dose 30 mg/kg, route po; conditions: in vivo
[3] = AUC (0 to infinity) in Sprague-Dawley rat at 10 mg/kg, iv administered for 12 hrs by HPLC analysis; type: ADME, organism-based; parameters: time 12 hrs, dose 10 mg/kg, route iv; conditions: in vivo
[4] = Toxicity in BALB/c nude mouse xenografted with human RD cells assessed as effect on kidney viscera index at 10 to 20 mg/kg, ip administered for 5 consecutive days followed by 2 rest days for 3 weeks; type: organism-based; conditions: in vivo, 504 h, dose 10-20 mg/kg

Histone-lysine N-methyltransferase EZH2, sequence (Q15910 whole entry, looked up): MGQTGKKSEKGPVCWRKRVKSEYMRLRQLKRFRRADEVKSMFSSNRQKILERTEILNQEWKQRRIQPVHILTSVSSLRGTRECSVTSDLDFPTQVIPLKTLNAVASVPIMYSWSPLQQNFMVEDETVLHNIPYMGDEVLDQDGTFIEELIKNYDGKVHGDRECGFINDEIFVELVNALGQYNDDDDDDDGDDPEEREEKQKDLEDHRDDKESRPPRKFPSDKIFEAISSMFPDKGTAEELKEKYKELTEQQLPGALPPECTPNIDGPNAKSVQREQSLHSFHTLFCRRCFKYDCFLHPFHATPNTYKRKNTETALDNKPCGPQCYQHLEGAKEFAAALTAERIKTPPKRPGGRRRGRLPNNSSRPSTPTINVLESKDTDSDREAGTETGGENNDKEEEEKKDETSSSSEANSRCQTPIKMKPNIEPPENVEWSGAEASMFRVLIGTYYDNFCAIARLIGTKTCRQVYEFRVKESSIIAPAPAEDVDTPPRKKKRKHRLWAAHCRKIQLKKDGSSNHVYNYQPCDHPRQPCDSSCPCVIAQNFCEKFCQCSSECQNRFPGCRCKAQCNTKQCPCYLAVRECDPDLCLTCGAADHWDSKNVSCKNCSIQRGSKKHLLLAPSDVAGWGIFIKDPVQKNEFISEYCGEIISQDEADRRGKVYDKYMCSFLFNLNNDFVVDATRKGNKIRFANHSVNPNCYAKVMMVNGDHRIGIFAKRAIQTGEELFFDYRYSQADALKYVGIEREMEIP

## COc1cc2c(NCc3c(C)cc(C)[nH]c3=O)nc(N3CCC(F)(F)CC3)nc2cc1OCCCN1CCCC1
Mus musculus
  Activity: Active
[1]
  Activity: Dose-Dependent Effect
RD
  Activity: inactive
[2]
  AUC(0-inf): 11400 ng·h/mL
[3]
  AUC: 2476.02 ng·h/mL
[4]
  Activity: Non-Toxic
